Activity calls are given as the source filed them. No cut-off for these calls is given here.
These compounds were tested on PC-3 (assay: Antiproliferative activity against human PC3 cells at 10 to 100 uM after 48 hrs by hemocytometric cell counting method).
Type: functional, cell-based

Compound	inhibition
O=C(O[C@@H]1Cc2c(O)cc(O)c([C@H]3c4c(O)cc(O)cc4O[C@H](c4ccc(O)c(O)c4)[C@@H]3O)c2O[C@@H]1c1ccc(O)c(O)c1)c1cc(O)c(O)c(O)c1	Active
O=C(O[C@H]1Cc2c(O)cc(O)c([C@@H]3c4c(O)cc(O)cc4O[C@H](c4ccc(O)c(O)c4)[C@H]3O)c2O[C@@H]1c1ccc(O)c(O)c1)c1cc(O)c(O)c(O)c1	Active
O=C(O[C@@H]1Cc2c(O)cc(O)cc2O[C@@H]1c1cc(O)c(O)c(O)c1)c1cc(O)c(O)c(O)c1	Active
O=C(O[C@@H]1[C@@H](c2c(O)cc(O)c3c2O[C@H](c2ccc(O)c(O)c2)[C@H](O)C3)c2c(O)cc(O)cc2O[C@@H]1c1ccc(O)c(O)c1)c1cc(O)c(O)c(O)c1	Active
O=C(O[C@@H]1[C@@H](c2c(O)cc(O)c3c2O[C@H](c2ccc(O)c(O)c2)[C@H](OC(=O)c2cc(O)c(O)c(O)c2)C3)c2c(O)cc(O)cc2O[C@@H]1c1ccc(O)c(O)c1)c1cc(O)c(O)c(O)c1	Active
O=C(O[C@H]1[C@H](c2c(O)cc(O)c3c2O[C@H](c2ccc(O)c(O)c2)[C@@H](OC(=O)c2cc(O)c(O)c(O)c2)C3)c2c(O)cc(O)cc2O[C@@H]1c1ccc(O)c(O)c1)c1cc(O)c(O)c(O)c1	Active
O=C(O[C@H]1[C@H](c2c(O)cc(O)c3c2O[C@H](c2ccc(O)c(O)c2)[C@@H](O)C3)c2c(O)cc(O)cc2O[C@@H]1c1ccc(O)c(O)c1)c1cc(O)c(O)c(O)c1	Active
Oc1cc(O)c2c(c1)O[C@H](c1cc(O)c(O)c(O)c1)[C@@H](O)[C@@H]2c1c(O)cc(O)c2c1O[C@H](c1cc(O)c(O)c(O)c1)[C@@H](O)C2	Active
